Data set [1] can be described thus: Metal chelating activity assessed as Fe2+-compound complex formation by UV-visible spectrophotometry.
Data set [2] is described as follows: Cytotoxicity against […] HT-22 cells assessed as reduction in cell viability measured after 24 hrs by MTT assay. It is filed as toxicity, cell-based. The note with it: mouse. Background: Tetrazolium dyes change colour on reduction, which living cells bring about.
For data set [3], the system named is HT-22. Kind of data set: Anti-ferroptotic activity against RSL3-induced ferroptosis in […] HT-22 cells assessed as cell viability measured after 24 hrs by MTT assay. It is filed as functional, cell-based. Particulars: Mus musculus, HT-22, 24 h.
A short description of data set [4]: Antioxidant activity assessed as DPPH radical scavenging activity at 100 uM measured for 30 mins by microplate spectrophotometric analysis. It is filed as functional.
Data set [5] deals with HT-22. The experiment in a line: Anti-ferroptotic activity against RSL3-induced ferroptosis in […] HT-22 cells assessed as cell viability at 1 uM measured after 24 hrs by MTT assay. It is filed as functional. Particulars: read-out: Activity.
Data set [6] concerns HT-22. Kind of data set: Reversal of RSL-3 induced PTGS2 mRNA expression in […] HT-22 cells incubated for 4 hrs by […] analysis. It is filed as functional, cell-based. Particulars: Mus musculus, dose 25-100 nM.
In data set [7] the test system is HT-22. The experiment in a line: Reduction in cytosolic ROS accumulation in RSL-3 treated […] HT-22 cells assessed as fluorescence intensity incubated for 4 hrs by carboxy-H2DCFDA staining based flow cytometry analysis. It is filed as functional, cell-based. Particulars: Mus musculus, dose 25-100 nM. A general note: A flow cytometer gives signals particle by particle.

The test system of data set [8] is HT-22. The experiment in a line: Reduction in lipid ROS accumulation in RSL-3 treated […] HT-22 cells assessed as fluorescence intensity incubated for 4 hrs by C11-BODIPY staining based flow cytometry analysis. It is filed as functional, cell-based. Particulars: Mus musculus, dose 25-100 nM.

The source made the active and inactive calls. No cut-off for these calls is given here. Bounds are passed on as bounds.

As to `CC(=O)N(O)CCCCCNC(=O)CCC(=O)N(O)CCCCCNC(=O)CCC(=O)N(O)CCCCCN`, the outcome in data set [1] was Active.
On to `CC1=C(C)C2=CC(=O)c3c(O)c4c(c(O)c3[C@@]2(C)CC1)OC[C@H]4C`, for which, in data set [2], the CC50 at 24 h was > 40000 nM. The EC50 in data set [3] came to 76.2 nM. The result in data set [4] was Active.
`CC1=C(C)C2=CC(=O)c3c(O)c4c(c(O)c3[C@@]2(C)CC1=O)OC[C@H]4C`: in data set [2], the CC50 at 24 h is > 40000 nM. Also, in data set [5], the viability at 1 µM was < 50%. Moreover, the result in data set [4] was Active.
For `Cc1coc2c(O)c3c(c(O)c12)C(=O)C=C1[C@]3(C)CC[C@]2(C)O[C@]12C`, the half-maximal cytotoxic concentration (CC50) at 24 h in data set [2] was > 40000 nM. Moreover, the EC50 in data set [3] was determined as 348 nM. The outcome in data set [4] was Active.
As to `CC1=C(C)C2=CC(=O)[C@@]34O[C@@]3(C(=O)c3occ(C)c3C4=O)[C@@]2(C)CC1`, in data set [2], the CC50 at 24 h is > 40000 nM. Further, the viability at 1 µM in data set [5] was < 50%.
On the same counts, the results for `C[C@@H]1COc2c(O)c3c(c(O)c21)C(=O)CC1C(C)(C)CCC[C@]31C` (some centres not stated) are > 40000 nM and < 50%.
For `CC1=C(C)C2=CC(=O)c3c(c(O)c4oc(C)cc4c3O)[C@@]2(C)CC1`, the CC50 at 24 h in data set [2] is > 40000 nM. The EC50 in data set [3] worked out at 526 nM. Moreover, the result in data set [4] was Active.
On the same counts, the results for `C=CCc1c(O)c2c(c(O)c1OC)[C@@]1(C)CCC(C)=C(C)C1=CC2=O` are > 40000 nM, 308 nM and “Active”.
On the same counts, the results for `C[C@@H]1COc2c(O)c3c(c(O)c21)C(=O)C=C1[C@]3(C)CC[C@]2(C)O[C@]12C` are > 40000 nM, 406 nM and “Active”.
With `CCOC(=O)c1ccc(NC2CCCCC2)c(N)c1`, the half-maximal effective concentration (EC50) in data set [3] turned out to be 81.2 nM.
On to `CC1=C(C)C2=CC(=O)[C@@]34O[C@@]3(C(=O)c3oc(C)cc3C4=O)[C@@]2(C)CC1`, for which the CC50 at 24 h in data set [2] was > 40000 nM. In addition, in data set [5], the viability at 1 µM is < 50%.
With `CC1=C(C)C2=CC(=O)c3c(c(O)c4occ(C)c4c3O)[C@@]2(C)CC1`, in data set [2], the CC50 at 24 h is > 40000 nM. Further, in data set [3], the EC50 stood at 56.1 nM. In addition, the outcome in data set [6], in data set [7], in data set [4] and in data set [8] was Active.

One may read the CC50 as the concentration that lowers cell viability or growth by half. As a reminder, the EC50 is the midpoint of the concentration-response curve.

The values above are taken from ChEMBL document CHEMBL5120917, “Ferroptosis Inhibitory Aromatic Abietane Diterpenoids from Ajuga decumbens and Structural Revision of Two 3,4-Epoxy Group-Containing Abietanes” (J Nat Prod, 2022).
